Assay results from ChEMBL document CHEMBL3885861, “Open TG-GATES”.

Species: Rattus norvegicus
Assay: Open TG-GATES - Regimen: Single
Type: toxicity, organism-based, Sprague-Dawley
Parameters: regimen Single, gender Male, age 6 weeks
Conditions: in vivo, po, route gavage; for APTT / Bas / Eos / Fbg / Hb / Ht / Lym / MCH / MCHC / MCV / Mono / Neu / PT / Plat / RBC / Ret / WBC: tissue Blood; for KIDNEY_L / KIDNEY_R / KIDNEY_TOTAL: tissue Kidney; for LIVER: tissue Liver; for A/G / ALP / ALT / AST / BUN / CRE / Ca / Cl / DBIL / GLC / IP / K / LDH / Na / PL / RALB / TBIL / TC / TG / TP / gamma-GTP: tissue Plasma
[1] = 0 mg/kg, 3 h, dose level Control
[2] = 0 mg/kg, 6 h, dose level Control
[3] = 0 mg/kg, 9 h, dose level Control
[4] = 0 mg/kg, 24 h, dose level Control
[5] = 300 mg/kg, 24 h, dose level Low

## CCOc1ccc(NC(=O)CC(C)O)cc1 (centres undefined) [BUCETIN]
[1]
  TERMINAL_BW: 208.8 g
  APTT: 14.7 s
  Bas: 0%
  Eos: 1%
  Fbg: 294.8 mg/dL
  Hb: 12.7 g/dL
  Ht: 38.3%
  Lym: 78.2%
  MCH: 21.4 pg
  MCHC: 33.2%
  MCV: 64.5 fL
  Mono: 3.2%
  Neu: 17.2%
  PT: 13.6 s
  Plat: 115.4 x10_4/uL
  RBC: 594.2 x10_4/ul
  Ret: 8.7%
  WBC: 84.1 x10_2/uL
  KIDNEY_L: 0.9 g
  KIDNEY_R: 0.9 g
  KIDNEY_TOTAL: 1.8 g
  LIVER: 9.1 g
  A/G: 0.9
  ALP: 1389.8 IU/L
  ALT: 35.8 IU/L
  AST: 75 IU/L
  BUN: 9.8 mg/dL
  CRE: 0.2 mg/dL
  Ca: 10.6 mg/dL
  Cl: 105.2 meq/L
  DBIL: 0.02 mg/dL
  GLC: 178 mg/dL
  IP: 8.6 mg/dL
  K: 4.3 meq/L
  LDH: 77.2 IU/L
  Na: 141.8 meq/L
  PL: 143.4 mg/dL
  RALB: 2.5 g/dL
  TBIL: 0.06 mg/dL
  TC: 81.6 mg/dL
  TG: 50.4 mg/dL
  TP: 5.4 g/dL
  gamma-GTP: 2 IU/L
[2]
  TERMINAL_BW: 211.1 g
  APTT: 16.7 s
  Bas: 0.2%
  Eos: 1%
  Fbg: 303.8 mg/dL
  Hb: 13.3 g/dL
  Ht: 40%
  Lym: 83.6%
  MCH: 21.4 pg
  MCHC: 33.3%
  MCV: 64.4 fL
  Mono: 1.8%
  Neu: 13%
  PT: 13.4 s
  Plat: 117.3 x10_4/uL
  RBC: 619.6 x10_4/ul
  Ret: 8.6%
  WBC: 97.2 x10_2/uL
  KIDNEY_L: 0.9 g
  KIDNEY_R: 0.9 g
  KIDNEY_TOTAL: 1.9 g
  LIVER: 8.9 g
  A/G: 0.9
  ALP: 1305.2 IU/L
  ALT: 32.4 IU/L
  AST: 66.4 IU/L
  BUN: 8.8 mg/dL
  CRE: 0.2 mg/dL
  Ca: 10.8 mg/dL
  Cl: 105.6 meq/L
  DBIL: 0.016 mg/dL
  GLC: 178.2 mg/dL
  IP: 9.2 mg/dL
  K: 4.3 meq/L
  LDH: 70.4 IU/L
  Na: 142.8 meq/L
  PL: 143.2 mg/dL
  RALB: 2.5 g/dL
  TBIL: 0.058 mg/dL
  TC: 77.6 mg/dL
  TG: 62.8 mg/dL
  TP: 5.4 g/dL
  gamma-GTP: 1.4 IU/L
[3]
  TERMINAL_BW: 208.6 g
  APTT: 17.3 s
  Bas: 0%
  Eos: 1%
  Fbg: 299.8 mg/dL
  Hb: 13 g/dL
  Ht: 39.1%
  Lym: 79.8%
  MCH: 21.3 pg
  MCHC: 33.2%
  MCV: 64.3 fL
  Mono: 2.6%
  Neu: 16.6%
  PT: 14.3 s
  Plat: 114.6 x10_4/uL
  RBC: 608.6 x10_4/ul
  Ret: 8.1%
  WBC: 87.3 x10_2/uL
  KIDNEY_L: 0.9 g
  KIDNEY_R: 0.9 g
  KIDNEY_TOTAL: 1.8 g
  LIVER: 8.3 g
  A/G: 0.9
  ALP: 1557.4 IU/L
  ALT: 32.8 IU/L
  AST: 68.6 IU/L
  BUN: 9.4 mg/dL
  CRE: 0.2 mg/dL
  Ca: 10.5 mg/dL
  Cl: 106 meq/L
  DBIL: 0.018 mg/dL
  GLC: 178.6 mg/dL
  IP: 9.8 mg/dL
  K: 4 meq/L
  LDH: 70.2 IU/L
  Na: 142.2 meq/L
  PL: 135 mg/dL
  RALB: 2.6 g/dL
  TBIL: 0.06 mg/dL
  TC: 73.8 mg/dL
  TG: 57.2 mg/dL
  TP: 5.4 g/dL
  gamma-GTP: 1.4 IU/L
[4]
  TERMINAL_BW: 224 g
  APTT: 18.6 s
  Bas: 0.2%
  Eos: 0.8%
  Fbg: 290.6 mg/dL
  Hb: 13.4 g/dL
  Ht: 40.5%
  Lym: 79%
  MCH: 21.3 pg
  MCHC: 33%
  MCV: 64.4 fL
  Mono: 2.6%
  Neu: 16.6%
  PT: 14.3 s
  Plat: 121.1 x10_4/uL
  RBC: 628.8 x10_4/ul
  Ret: 7.6%
  WBC: 102.9 x10_2/uL
  KIDNEY_L: 1 g
  KIDNEY_R: 1 g
  KIDNEY_TOTAL: 2 g
  LIVER: 10.4 g
  A/G: 0.9
  ALP: 1587.4 IU/L
  ALT: 40.4 IU/L
  AST: 72.2 IU/L
  BUN: 14.6 mg/dL
  CRE: 0.2 mg/dL
  Ca: 11.1 mg/dL
  Cl: 105.2 meq/L
  DBIL: 0.022 mg/dL
  GLC: 180.8 mg/dL
  IP: 7.9 mg/dL
  K: 4.1 meq/L
  LDH: 74.6 IU/L
  Na: 143.6 meq/L
  PL: 148.2 mg/dL
  RALB: 2.6 g/dL
  TBIL: 0.05 mg/dL
  TC: 76.2 mg/dL
  TG: 104.2 mg/dL
  TP: 5.6 g/dL
  gamma-GTP: 1.2 IU/L
300 mg/kg, 3 h, dose level Low
  TERMINAL_BW: 213.6 g
  APTT: 15.8 s
  Bas: 0%
  Eos: 0.8%
  Fbg: 292.8 mg/dL
  Hb: 13 g/dL
  Ht: 39%
  Lym: 77.8%
  MCH: 21.4 pg
  MCHC: 33.3%
  MCV: 64.3 fL
  Mono: 2.6%
  Neu: 18.2%
  PT: 13.7 s
  Plat: 117.1 x10_4/uL
  RBC: 608.2 x10_4/ul
  Ret: 8.5%
  WBC: 68.4 x10_2/uL
  KIDNEY_L: 1 g
  KIDNEY_R: 1 g
  KIDNEY_TOTAL: 1.9 g
  LIVER: 9.6 g
  A/G: 0.9
  ALP: 1395.4 IU/L
  ALT: 33.2 IU/L
  AST: 66.8 IU/L
  BUN: 9.4 mg/dL
  CRE: 0.2 mg/dL
  Ca: 10.7 mg/dL
  Cl: 104.8 meq/L
  DBIL: 0.026 mg/dL
  GLC: 181 mg/dL
  IP: 9.1 mg/dL
  K: 4.2 meq/L
  LDH: 73.8 IU/L
  Na: 140.6 meq/L
  PL: 155.2 mg/dL
  RALB: 2.5 g/dL
  TBIL: 0.052 mg/dL
  TC: 84.4 mg/dL
  TG: 78 mg/dL
  TP: 5.4 g/dL
  gamma-GTP: 1.2 IU/L
300 mg/kg, 6 h, dose level Low
  TERMINAL_BW: 209.9 g
  APTT: 15.2 s
  Bas: 0%
  Eos: 1%
  Fbg: 292.4 mg/dL
  Hb: 13.4 g/dL
  Ht: 40.3%
  Lym: 77%
  MCH: 20.7 pg
  MCHC: 33.4%
  MCV: 62 fL
  Mono: 2.6%
  Neu: 19%
  PT: 13.6 s
  Plat: 112.6 x10_4/uL
  RBC: 649.8 x10_4/ul
  Ret: 7.8%
  WBC: 80.5 x10_2/uL
  KIDNEY_L: 0.9 g
  KIDNEY_R: 0.9 g
  KIDNEY_TOTAL: 1.8 g
  LIVER: 8.7 g
  A/G: 0.9
  ALP: 1309.2 IU/L
  ALT: 29.8 IU/L
  AST: 65.8 IU/L
  BUN: 8 mg/dL
  CRE: 0.2 mg/dL
  Ca: 10.6 mg/dL
  Cl: 105 meq/L
  DBIL: 0.026 mg/dL
  GLC: 186 mg/dL
  IP: 10.5 mg/dL
  K: 4.3 meq/L
  LDH: 74.4 IU/L
  Na: 141.8 meq/L
  PL: 139.8 mg/dL
  RALB: 2.5 g/dL
  TBIL: 0.058 mg/dL
  TC: 77 mg/dL
  TG: 44.8 mg/dL
  TP: 5.3 g/dL
  gamma-GTP: 1.2 IU/L
300 mg/kg, 9 h, dose level Low
  TERMINAL_BW: 206.6 g
  APTT: 18.5 s
  Bas: 0%
  Eos: 1%
  Fbg: 291.8 mg/dL
  Hb: 13.1 g/dL
  Ht: 39.5%
  Lym: 77.2%
  MCH: 20.9 pg
  MCHC: 33.3%
  MCV: 62.8 fL
  Mono: 2%
  Neu: 19.6%
  PT: 14.3 s
  Plat: 110.2 x10_4/uL
  RBC: 628.8 x10_4/ul
  Ret: 8.1%
  WBC: 59.9 x10_2/uL
  KIDNEY_L: 0.9 g
  KIDNEY_R: 0.9 g
  KIDNEY_TOTAL: 1.9 g
  LIVER: 8.1 g
  A/G: 0.9
  ALP: 1396.8 IU/L
  ALT: 31 IU/L
  AST: 68.4 IU/L
  BUN: 8.4 mg/dL
  CRE: 0.2 mg/dL
  Ca: 10.4 mg/dL
  Cl: 107.2 meq/L
  DBIL: 0.028 mg/dL
  GLC: 182 mg/dL
  IP: 10.3 mg/dL
  K: 4.3 meq/L
  LDH: 68.6 IU/L
  Na: 142.8 meq/L
  PL: 136.8 mg/dL
  RALB: 2.5 g/dL
  TBIL: 0.062 mg/dL
  TC: 77.2 mg/dL
  TG: 29.2 mg/dL
  TP: 5.4 g/dL
  gamma-GTP: 1.2 IU/L
[5]
  TERMINAL_BW: 223.3 g
  APTT: 19.1 s
  Bas: 0%
  Eos: 1%
  Fbg: 303 mg/dL
  Hb: 13.3 g/dL
  Ht: 40%
  Lym: 76.8%
  MCH: 20.9 pg
  MCHC: 33.3%
  MCV: 62.9 fL
  Mono: 3.4%
  Neu: 18.4%
  PT: 14.2 s
  Plat: 121.5 x10_4/uL
  RBC: 636.4 x10_4/ul
  Ret: 7.7%
  WBC: 109.1 x10_2/uL
  KIDNEY_L: 1 g
  KIDNEY_R: 1 g
  KIDNEY_TOTAL: 1.9 g
  LIVER: 10.8 g
  A/G: 0.9
  ALP: 1683.6 IU/L
  ALT: 38.8 IU/L
  AST: 67 IU/L
  BUN: 15.4 mg/dL
  CRE: 0.2 mg/dL
  Ca: 11.1 mg/dL
  Cl: 104.8 meq/L
  DBIL: 0.02 mg/dL
  GLC: 176.6 mg/dL
  IP: 7.7 mg/dL
  K: 4.1 meq/L
  LDH: 62.6 IU/L
  Na: 143.8 meq/L
  PL: 171.2 mg/dL
  RALB: 2.7 g/dL
  TBIL: 0.05 mg/dL
  TC: 89.2 mg/dL
  TG: 112.8 mg/dL
  TP: 5.7 g/dL
  gamma-GTP: 1 IU/L
